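Here, GI50 denotes the concentration required for 50% inhibition of growth. At the TGI there is no net growth.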
Experiments:
Assay in all cases: NCI anticancer screen, dose series, 384-well format
[1] = tested on: MDA-MB-468 breast
[2] = tested on: SF-295 CNS
[3] = tested on: CAKI-1 renal
[4] = tested on: UO-31 renal
[5] = tested on: HS 578T breast
[6] = tested on: OVCAR-5 ovarian
[7] = tested on: MDA-MB-435 melanoma
[8] = tested on: SK-MEL-28 melanoma
[9] = tested on: RPMI-8226 leukemia
[10] = tested on: HCC-2998 colon
[11] = tested on: SK-OV-3 ovarian
[12] = tested on: HOP-62 NSCLC
[13] = tested on: U251 glioblastoma
[14] = tested on: HCT-15 colon
[15] = tested on: CCRF-CEM leukemia
[16] = tested on: NCI-H460 NSCLC
[17] = tested on: SNB-75 CNS
[18] = tested on: K-562 leukemia
[19] = tested on: KM12 colon
[20] = tested on: IGROV1 ovarian
[21] = tested on: NCI-H23 lung
[22] = tested on: DU-145 prostate
[23] = tested on: UACC-62 melanoma
[24] = tested on: SK-MEL-5 melanoma
[25] = tested on: MOLT-4 leukemia
[26] = tested on: PC-3 prostate
[27] = tested on: OVCAR-3 ovarian
[28] = tested on: OVCAR-8 ovarian
[29] = tested on: MALME-3M melanoma
[30] = tested on: A549 NSCLC
[31] = tested on: UACC-257 melanoma
[32] = tested on: SNB-19 CNS
[33] = tested on: T-47D breast
[34] = tested on: HL-60(TB) leukemia
[35] = tested on: HOP-92 NSCLC
[36] = tested on: NCI-H522 lung
[37] = tested on: MDA-MB-231 breast
[38] = tested on: HCT-116 colon
[39] = tested on: HT29 colon
[40] = tested on: ACHN renal
[41] = tested on: A498 renal
[42] = tested on: OVCAR-4 ovarian
[43] = tested on: SF-268 CNS
[44] = tested on: LOX IMVI melanoma
[45] = tested on: NCI/ADR-RES ovarian
[46] = tested on: SF-539 CNS
[47] = tested on: COLO 205 colon
[48] = tested on: EKVX NSCLC
[49] = tested on: NCI-H226 lung
[50] = tested on: TK-10 renal
[51] = tested on: 786-0 renal
[52] = tested on: SN12C renal
[53] = tested on: BT-549 breast
[54] = tested on: RXF 393 renal
[55] = tested on: M14 melanoma
[56] = tested on: MCF7 breast
[57] = tested on: NCI-H322M lung
[58] = tested on: SW-620 colon

CC(=O)N1CCN(CCOc2ccc(C3CCN(C4=Nn5c(nnc5C(F)(F)F)CC4)CC3)cc2)CC1
GI50 [1]: 1.72 µM | TGI [1]: 10 µM | GI50 [2]: 23.6 µM | TGI [2]: > 100 µM | GI50 [3]: 3.53 µM | TGI [3]: > 100 µM | GI50 [4]: 22.9 µM | TGI [4]: > 100 µM | GI50 [5]: 4.78 µM | TGI [5]: 31.2 µM | GI50 [6]: 15.1 µM | TGI [6]: > 100 µM | GI50 [7]: 32.8 µM | TGI [7]: > 100 µM | GI50 [8]: 24.2 µM | TGI [8]: > 100 µM | GI50 [9]: 3.34 µM | TGI [9]: 13.4 µM | GI50 [10]: 6.17 µM | TGI [10]: 24.2 µM | GI50 [11]: 6.93 µM | TGI [11]: 31.8 µM | GI50 [12]: 4.71 µM | TGI [12]: 25.9 µM | GI50 [13]: 16.5 µM | TGI [13]: 67.3 µM | GI50 [14]: 18.1 µM | TGI [14]: > 100 µM | GI50 [15]: 4.06 µM | TGI [15]: 19.3 µM | GI50 [16]: 13.3 µM | TGI [16]: 36.6 µM | GI50 [17]: 8.08 µM | TGI [17]: 76.5 µM | GI50 [18]: 3.66 µM | TGI [18]: > 100 µM | GI50 [19]: 12 µM | TGI [19]: > 100 µM | GI50 [20]: 6.07 µM | TGI [20]: 54.1 µM | GI50 [21]: 8.08 µM | TGI [21]: > 100 µM | GI50 [22]: 32 µM | TGI [22]: > 100 µM | GI50 [23]: 4.27 µM | TGI [23]: 88.8 µM | GI50 [24]: 4.83 µM | TGI [24]: 19.7 µM | GI50 [25]: 4.72 µM | TGI [25]: 21.4 µM | GI50 [26]: 9.08 µM | TGI [26]: > 100 µM | GI50 [27]: 7.08 µM | TGI [27]: 35.3 µM | GI50 [28]: 12.3 µM | TGI [28]: 60 µM | GI50 [29]: 11.6 µM | TGI [29]: 75.2 µM | GI50 [30]: 14.2 µM | TGI [30]: > 100 µM | GI50 [31]: 4.87 µM | TGI [31]: 26.2 µM | GI50 [32]: 17.9 µM | TGI [32]: 83.4 µM | GI50 [33]: 1.16 µM | TGI [33]: 7.99 µM | GI50 [34]: 3.79 µM | TGI [34]: 14.7 µM | GI50 [35]: 14.5 µM | TGI [35]: > 100 µM | GI50 [36]: 2.9 µM | TGI [36]: 20.1 µM | GI50 [37]: 5.58 µM | TGI [37]: > 100 µM | GI50 [38]: 13.4 µM | TGI [38]: > 100 µM | GI50 [39]: 10.4 µM | TGI [39]: > 100 µM | GI50 [40]: 15.3 µM | TGI [40]: 62.8 µM | GI50 [41]: 14.7 µM | TGI [41]: 77.2 µM | GI50 [42]: 11.8 µM | TGI [42]: 71.7 µM | GI50 [43]: 2.83 µM | TGI [43]: 12.7 µM | GI50 [44]: 3.75 µM | TGI [44]: 17.9 µM | GI50 [45]: 24.1 µM | TGI [45]: 75.6 µM | GI50 [46]: 13.5 µM | TGI [46]: > 100 µM | GI50 [47]: 15.2 µM | TGI [47]: > 100 µM | GI50 [48]: 16.8 µM | TGI [48]: > 100 µM | GI50 [49]: 15 µM | TGI [49]: > 100 µM | GI50 [50]: 20.9 µM | TGI [50]: > 100 µM | GI50 [51]: 8.6 µM | TGI [51]: 69.3 µM | GI50 [52]: 22.5 µM | TGI [52]: > 100 µM | GI50 [53]: 5.94 µM | TGI [53]: 39.8 µM | GI50 [54]: 5.97 µM | TGI [54]: 27.5 µM | GI50 [55]: 10.9 µM | TGI [55]: > 100 µM | GI50 [56]: 3.42 µM | TGI [56]: 83.1 µM | GI50 [57]: 13 µM | TGI [57]: > 100 µM | GI50 [58]: > 100 µM | TGI [58]: > 100 µM

— PubChem BioAssay (NCI)
